Data: paper PMC9611758, “Bioactive Platinum(IV) Complexes Incorporating Halogenated Phenylacetates” (Molecules, 2022)

Legend:
[1] = system: non-tumour derived MCF10A breast line; assay: MTT growth inhibition assay, MCF10A; assay type: cell-based, human; conditions: 72 h
[2] = system: HT29 colon; assay: MTT growth inhibition assay, HT29; assay type: cell-based, human; conditions: MTT assay, 72 h
[3] = Lipophilicity by HPLC (log kw); assay type: physicochemical
From the text: For lipophilicity measurements, HPLC was utilised instead of the traditional shake-flask method, as described previously. Recent studies have also reported the efficiency of HPLC in measuring the lipophilicity of compounds [79, 80]. Each complex was eluted under several isocratic ratios. A standard curve was generated to calculate the log value of the capacity factor (log k) according to Equation (1). Following Equation (2), the percentage of organic solvent (CH3CN) in the mobile phase from each isocratic run was plotted against log kw (Figure S80). Log kw is the chromatographic lipophilicity index or measure of lipophilicity of the complex, so a higher value corresponds to greater lipophilicity. Because the selected axial ligands in this study contain F, Cl, Br, and I, it was only appropriate to determine the influence of the halogens on the overall lipophilicity of the platinum(IV) complexes. […] Conversely, the least lipophilic complex was the phen derivative containing 4-FPA, 3, with a log kw of 0.25. Furthermore, for the phen derivatives, the order of increasing lipophilicity was 3 > 1 > 5 > 7, which corresponds to the order of increasing size of the halogens, F > Cl > Br > I. This pattern was also observed with the 5,6-Me2phen derivatives (4 > 2 > 6 > 8), thereby confirming that the halogens increased the order of lipophilicity accordingly based on their size.
For lipophilicity measurements, analytical HPLC was utilised. Elution profiles were acquired on an Agilent (Melbourne, VIC, Australia) Technologies 1260 Infinity instrument equipped with a Phenomenex Onyx^TM Monolithic C18-reverse phase column (100 × 4.6 mm, 5 µm pore size) (Sydney, NSW, Australia). The mobile phase consisted of solvents, A (0.06% TFA in d.i.H2O) and B (0.06% TFA in CH3CN/d.i.H2O (90:10)). Potassium iodide was used as an external dead volume marker to determine the dead time of the column. Retention times (TR) were measured at varying isocratic ratios ranging from 30 to 36% of solvent B at 1 mL·min^−1 mL. An injection volume of 10 µL was utilised. Capacity factors were determined according to Equation (1):(1) k=(TR−T0)/T0 where k is the capacity factor, TR is the retention time of the analyte, and T0 represents the dead time. A minimum of four different mobile compositions were used for each complex to calculate k. A linear plot was generated of log k against the concentration of CH3CN in the mobile phase to determine the value of log kw expressed by Equation (2):(2) logk=Sφ+logkw where S is the slope, φ is the concentration of the CH3CN in the mobile phase, and log kw represents the capacity factor of the complex in 100% d.i.H2O. Extrapolation of this linear plot to the y-intercept indicates the log kw value.

[4] = system: Du145 prostate; assay: MTT growth inhibition assay, Du145; assay type: cell-based, human; conditions: MTT assay, 72 h
[5] = Reduction experiments with AsA by 1H-NMR and 1D-195Pt-NMR; assay type: physicochemical; conditions: D2O, 37 °C
From the text: Platinum(IV) complexes are reduced to their platinum(II) precursors by intracellular biological reducing agents such as AsA or GSH in tumour cells. However, the precise mechanism by which reduction occurs is not fully understood. In this paper, reduction reaction experiments were undertaken on the synthesised platinum(IV) complexes, 1–8, with the aid of ^1H-NMR and 1D-^195Pt-NMR spectroscopy. The method used for the reduction reaction experiments was adapted from the literature without modifications. A total of 10 mM PBS (~7.4 pH) was selected as media, and AsA was used as the biological reducing agent to investigate the reduction property of 1–8. Prior to the reduction reaction experiments, a control was prepared where each metal complex was dissolved with PBS in D2O. 1D-^195Pt-NMR was measured within the regions of −2800 and 400 ppm (30 min per region), at 37 °C. This was undertaken to confirm that the PBS would not interfere with the reduction process of the metal complexes. […] The approximate time points for the studied complexes at which an estimated 50% reduction had occurred, in the presence of AsA, as represented by T50%, are summarised in Table 6.
The reduction properties of 1–8 were monitored using ^1H-NMR and 1D-^195Pt-NMR spectroscopy on a 400 MHz Bruker (Melbourne, VIC, Australia) Avance Spectrometer. A sequence of ^1H-NMR experiments was carried out for 1 h at 37 °C, followed by 1D-^195Pt-NMR within the regions of −2800 and 400 ppm. An amount of 10 mM PBS (~7.4 pH) was transferred to a vial and reduced to dryness through rotary evaporation. AsA (~1 mg) was combined with the metal complex (~5 mg) and transferred to the vial containing the dried PBS. A total of 600 µL of D2O was then added to the vial to dissolve the complex, AsA, and the PBS together.

[6] = system: ADDP-resistant ovarian variant; assay: MTT growth inhibition assay, ADDP; assay type: cell-based, human; conditions: MTT assay, 72 h
[7] = system: HT29 colon cells; assay: ROS detection assay (DCFH-DA); assay type: cell-based, human; conditions: for ROS production 24 h / ROS production 48 h / ROS production 72 h: HT29 colon cells, treated at GI50 concentration (TBHP positive control 20 μM); for ROS production relative to the control: HT29 colon cells, 24, 48 and 72 h
From the text: Although ROS is required for cancer cell function and progression, it can induce programmed cell death or apoptosis. […] In this study, we report the ROS activity of the studied platinum(IV) complexes, 1–8, together with the individual axial ligands (4-CPA, 4-FPA, 4-BPA, and 4-IPA) in the human cancer cell line, HT29 colon (Figure 19, Table 8, and Figure S95). The ROS potential of their platinum(II) and platinum(IV) precursors in the same cell line is also presented for comparison purposes (Table 8). […] HT29 colon cells were stained by DCFH-DA and then treated with the complexes at each specific GI50 concentration. Upon ROS production, the DCFH-DA produced dichlorodihydrofluorescein, a fluorescent product. The measured fluorescence was, therefore, proportional to the produced ROS.
To investigate the presence of ROS in treated cells, a DCFDA/H2DCFDA-cellular ROS Assay Kit (Abcam, Cambridge, MA, USA) was used, as previously described. A total of 25,000 cells/mL of HT29 cells in DMEM were seeded in 96-well plates. Cells were washed with 1X kit buffer, and then stained with 25 μM 2′,7′-dichlorofluorescein diacetate (DCFH-DA) and incubated for 45 min. DCFH-DA was then removed, and cells were then re-washed with 1X kit buffer, after which phenol red free media was added. Cells were then treated with a GI50 drug concentration for each complex. The plates were directly scanned to measure fluorescence (relative fluorescence units (RFU)) at different time points using the Glo-Max®-Multimode microplate reader (Promega Corporation, Alexandra, VIC, Australia) at an excitation/emission of 485/535 nm. To generate the positive control (20 μM tert-butyl hydroperoxide (TBHP)), cells were washed with 1X kit buffer, and stained with DCFDA (25 μM) for 45 min; this was removed and TBHP was added in phenol red free media, and the resulting solution was scanned as described above.

[8] = system: SJ-G2 glioblastoma; assay: MTT growth inhibition assay, SJ-G2; assay type: cell-based, human
[9] = system: panel of cell lines; assay: MTT growth inhibition assay, whole panel of cell lines; assay type: cell-based, human; conditions: 72 h; for GI50: average over the cell lines tested, MTT assay; for cytotoxicity: panel of cell lines, MTT
[10] = system: BE2-C neuroblastoma; assay: MTT growth inhibition assay, BE2-C; assay type: cell-based, human; conditions: 72 h
[11] = system: MCF-7 breast; assay: MTT growth inhibition assay, MCF-7; assay type: cell-based, human; conditions: MTT assay, 72 h
[12] = system: U87 glioblastoma; assay: MTT growth inhibition assay, U87; assay type: cell-based, human; conditions: 72 h
[13] = system: H460 lung; assay: MTT growth inhibition assay, H460; assay type: cell-based, human
[14] = system: A2780 ovarian; assay: MTT growth inhibition assay, A2780; assay type: cell-based, human
[15] = system: A431 skin; assay: MTT growth inhibition assay, A431; assay type: cell-based, human
[16] = system: MIA pancreas; assay: MTT growth inhibition assay, MIA; assay type: cell-based, human; conditions: 72 h

Row | SMILES | ROS production 24 h [7] [RFU] | ROS production 48 h [7] [RFU] | ROS production 72 h [7] [RFU] | GI50 ([1]; Homo sapiens, MCF-10A) [µM] | GI50 ([2]; Homo sapiens, HT-29) [µM] | GI50 ([4]; Homo sapiens, DU-145) [µM] | GI50 ([6]; Homo sapiens) [µM] | ROS production relative to the control [7] | GI50 ([8]; Homo sapiens, SJ-G2, 72 h) [µM] | GI50 ([9]; Homo sapiens) [µM] | cytotoxicity [9] | GI50 ([10]; Homo sapiens, BE(2)-C) [µM] | GI50 ([11]; Homo sapiens, MCF7) [µM] | GI50 ([12]; Homo sapiens) [µM] | GI50 ([13]; Homo sapiens, NCI-H460, 72 h) [µM] | GI50 ([14]; Homo sapiens, A2780, 72 h) [µM] | GI50 ([15]; Homo sapiens, A-431, 72 h) [µM] | GI50 ([16]; Homo sapiens) [µM] | also measured
1 | Cc1c(C)c2c3c4c1=CC=C[N]4[Pt+2]([OH])([O]C(=O)Cc1ccc(I)cc1)[N]3C=CC=2.N[C@H]1CCCC[C@@H]1N [Complex 8, [Pt^IV(5,6-Me2phen)(SS-DACH)(4-IPA)(OH)]^2+] | 345 ± 19.3 | 406 ± 14 | 466 ± 13 | – | – | – | – | – | – | – | – | – | – | – | – | – | – | – | GI50 [1]: 0.26 ± 0.022 µM; GI50 [2]: 0.178 ± 0.031 µM; log kw ([3]; chromatographic lipophilicity index, extrapolated to 100% d.i.H2O): 1.19; log kw (y-intercept of log k versus [CH3CN] % plot, Figure S80) ([3]; linear fit): 1.1909; GI50 [4]: 0.1 ± 0.021 µM; T50% (approximate time at which 50% reduction occurs) ([5]; 10 mM PBS (~7.4 pH), 1H-NMR): 5 to 10 min; extent of reduction 1 h after the final 1H-NMR experiment (1D-195Pt-NMR) ([5]; PBS, regions −2800 and 400 ppm): complete reduction; GI50 [6]: 0.23 ± 0.015 µM; GI50 ([8]; 72 h): 0.52 ± 0.029 µM; GI50 [9]: 0.387 ± 0.05 µM; GI50 [10]: 0.65 ± 0.081 µM; GI50 [11]: 0.42 ± 0.062 µM; GI50 [12]: 0.9 ± 0.058 µM; GI50 ([13]; 72 h): 0.39 ± 0.033 µM; GI50 ([14]; 72 h): 0.26 ± 0.045 µM; GI50 ([15]; 72 h): 0.43 ± 0.16 µM; GI50 [16]: 0.3 ± 0.055 µM
2 | CC(C)(C)OO [TBHP, tert-butyl hydroperoxide] | 514 ± 3 | 336 ± 2 | 332 ± 5 | – | – | – | – | – | – | – | – | – | – | – | – | – | – | – | –
3 | O=C(O)Cc1ccc(I)cc1 [Complex 4-IPA, 4-iodophenylacetic acid] | 137 ± 7 | 182 ± 12 | 206 ± 9 | > 50 | > 50 | > 50 | > 50 | increase in ROS production relative to the control | > 50 | > 50 | did not demonstrate significant cytotoxicity | > 50 | > 50 | > 50 | > 50 | > 50 | > 50 | > 50 | –
4 | O=C(O)Cc1ccc(Br)cc1 [Complex 4-BPA, 4-bromophenylacetic acid] | 172 ± 9 | 198 ± 10 | 222 ± 13 | > 50 | > 50 | > 50 | > 50 | increase in ROS production relative to the control | > 50 | > 50 | did not demonstrate significant cytotoxicity | > 50 | > 50 | > 50 | > 50 | > 50 | > 50 | > 50 | –
5 | O=C(O)Cc1ccc(F)cc1 [Complex 4-FPA, 4-fluorophenylacetic acid] | 197 ± 8 | 224 ± 11 | 236 ± 6 | > 50 | > 50 | > 50 | > 50 | increase in ROS production relative to the control | > 50 | > 50 | did not demonstrate significant cytotoxicity | > 50 | > 50 | > 50 | > 50 | > 50 | > 50 | > 50 | –
6 | O=C(O)Cc1ccc(Cl)cc1 [Complex 4-CPA, 4-chlorophenylacetic acid] | 167 ± 13.2 | 207 ± 14.5 | 233 ± 10.4 | > 50 | > 50 | > 50 | > 50 | increase in ROS production relative to the control | > 50 | > 50 | did not demonstrate significant cytotoxicity | > 50 | > 50 | > 50 | > 50 | > 50 | > 50 | > 50 | –
